Earlier results as cited in patent US20240156825A1, “USE OF SELECTIVE VEGFR2 AND FGFR1 INHIBITORS” (Fountain Therapeutics Inc., priority 2022, published 2024).
Like-named read-outs stand apart in the source and are kept apart here.

Tests used:
[1] = target: VEGFR2 (Homo sapiens, UniProt P35968); conditions: reported IC50 to VEGFR2, read-out: VEGFR2 IC50_μM, cited from earlier work
[2] = test system: any gene target; conditions: next lowest IC50 value to any gene target, read-out: Min IC50_μM, cited from earlier work
[3] = Table 3, selective inhibitors of VEGFR2

Chain of VEGFR2 (P35968 20-1356, species assumed): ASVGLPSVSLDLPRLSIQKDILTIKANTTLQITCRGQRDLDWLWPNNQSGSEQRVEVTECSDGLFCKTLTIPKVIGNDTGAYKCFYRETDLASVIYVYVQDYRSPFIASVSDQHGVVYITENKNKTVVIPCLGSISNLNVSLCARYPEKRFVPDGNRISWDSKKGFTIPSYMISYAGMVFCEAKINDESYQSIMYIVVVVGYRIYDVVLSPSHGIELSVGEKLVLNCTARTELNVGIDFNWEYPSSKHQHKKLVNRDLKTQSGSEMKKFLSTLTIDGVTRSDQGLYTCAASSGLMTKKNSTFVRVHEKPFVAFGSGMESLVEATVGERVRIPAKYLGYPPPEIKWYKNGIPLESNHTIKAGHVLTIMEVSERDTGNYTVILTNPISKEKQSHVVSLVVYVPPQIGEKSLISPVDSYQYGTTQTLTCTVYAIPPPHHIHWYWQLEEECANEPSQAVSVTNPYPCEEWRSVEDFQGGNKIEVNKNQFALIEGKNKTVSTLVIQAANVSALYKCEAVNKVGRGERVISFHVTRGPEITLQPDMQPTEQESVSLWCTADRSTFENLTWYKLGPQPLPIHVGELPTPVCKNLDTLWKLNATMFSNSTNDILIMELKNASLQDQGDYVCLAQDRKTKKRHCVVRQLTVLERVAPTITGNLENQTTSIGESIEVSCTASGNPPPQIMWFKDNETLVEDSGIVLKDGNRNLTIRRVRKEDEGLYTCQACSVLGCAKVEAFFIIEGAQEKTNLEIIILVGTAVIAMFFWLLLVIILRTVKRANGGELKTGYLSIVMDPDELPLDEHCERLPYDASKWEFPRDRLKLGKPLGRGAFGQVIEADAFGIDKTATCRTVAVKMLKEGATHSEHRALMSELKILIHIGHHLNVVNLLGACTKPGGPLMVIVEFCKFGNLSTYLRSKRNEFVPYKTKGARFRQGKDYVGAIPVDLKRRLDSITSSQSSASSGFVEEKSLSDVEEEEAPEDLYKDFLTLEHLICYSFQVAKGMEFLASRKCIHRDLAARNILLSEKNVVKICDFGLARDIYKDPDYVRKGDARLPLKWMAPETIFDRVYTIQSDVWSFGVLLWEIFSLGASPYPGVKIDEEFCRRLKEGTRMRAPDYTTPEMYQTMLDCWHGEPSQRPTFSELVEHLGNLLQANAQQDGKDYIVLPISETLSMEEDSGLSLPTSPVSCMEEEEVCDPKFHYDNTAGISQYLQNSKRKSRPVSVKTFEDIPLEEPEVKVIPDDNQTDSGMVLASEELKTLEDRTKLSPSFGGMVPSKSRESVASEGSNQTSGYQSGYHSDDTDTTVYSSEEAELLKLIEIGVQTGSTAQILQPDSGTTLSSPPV

SMILES: COc1cc2c(Nc3ccc(Br)c(Cl)c3Cl)ncnc2cc1OC[C@H]1CN2CCCC[C@H]2CO1 [compound 134150926]
- IC50 [1, 3]: 50 nM
- IC50 ([2]; Table 3): 50 nM

SMILES: COc1cc2c(Nc3ccc(-c4nc5ccccc5s4)cc3)ncnc2cc1OCCCN1CCN(C)CC1 [compound 46225612]
- IC50 [1]: 12 nM
- IC50 [2]: 14 nM

SMILES: Oc1cc(O)c2cc(O)c(-c3cc(O)c(O)c(O)c3)[o+]c2c1 [compound 68245]
- IC50 [1]: 5.09 nM
- IC50 [2]: 6.27 nM

SMILES: CCN1CCCC(c2nc(COc3cc4ncnc(Nc5ccc(Cl)c(Cl)c5)c4cc3OC)no2)C1 (centres unmarked) [compound 58013772]
- IC50 [1, 3]: 50 nM
- IC50 ([2]; Table 3): 50 nM

SMILES: COc1cc2c(Nc3ccc(Br)cc3F)ncnc2cc1OC[C@H]1CCCN(C)C1 [compound 5329057]
- IC50 [1]: 10 nM
- IC50 [2]: 40 nM

SMILES: Cc1nn(C)c2cc(N(C)c3ccnc(Nc4cccc(S(N)(=O)=O)c4)n3)ccc12 [compound 24949545]
- IC50 [1]: 36 nM
- IC50 [2]: 1000 nM

SMILES: COc1cc2nccc(Oc3ccc4c(C(=O)NC(C)(C)C)cccc4c3)c2cc1OC [compound 24823091]
- IC50 [1]: 1500 nM
- IC50 [2]: 3700 nM

SMILES: COc1cc2c(Nc3ccc(Cl)c(Cl)c3F)ncnc2cc1OC[C@@H]1CN2CCC[C@H]2C(=O)N1 [compound 53630923]
- IC50 [1, 3]: 50 nM
- IC50 ([2]; Table 3): 50 nM

SMILES: COc1cc2c(Nc3ccc(Cl)cc3F)ncnc2cc1OC/C=C/CN1CCCC1 [compound 22478297]
- IC50 [1, 3]: 40 nM
- IC50 ([2]; Table 3): 40 nM

SMILES: COc1cc2c(Nc3ccc(Cl)c(Cl)c3)ncnc2cc1OCC1CN(C(C)=O)CCCO1 (centres unmarked) [compound 57802725]
- IC50 [1]: 50 nM
- IC50 [2]: 50 nM

SMILES: CC(C)Oc1cc2c(Nc3ccc(Cl)c(Cl)c3)ncnc2cc1OCC1CNCCO1 (centres unmarked) [compound 57802576]
- IC50 [1, 3]: 50 nM
- IC50 ([2]; Table 3): 50 nM

SMILES: O=C(Nc1cccc(-c2cncc3ccccc23)c1)c1ccccc1NCc1ccncc1 [compound 44368815]
- IC50 [1]: 1.16 nM
- IC50 [2]: 52 nM

SMILES: COCCNC(=O)c1cccc2cc(Oc3ccnc4cc(OC)c(C(N)=O)cc34)ccc12 [compound 11224593]
- IC50 [1]: 22 nM
- IC50 [2]: 233 nM

SMILES: COc1cc2c(Nc3ccc(Cl)c(Cl)c3)ncnc2cc1OCC1CN(C(=O)c2c(C)noc2C)CCO1 (centres unmarked) [compound 57802871]
- IC50 [1, 3]: 50 nM
- IC50 ([2]; Table 3): 50 nM

SMILES: COc1cc2c(Nc3ccc(Br)cc3F)ncnc2cc1OC[C@@H]1CCCN(C)C1 [compound 5329056]
- IC50 [1]: 1 nM
- IC50 [2]: 60 nM

SMILES: O=C(Nc1ccc(Oc2ncnc3sc4c(c23)CCCC4)cc1)Nc1cccc(Br)c1 [compound 122193773]
- IC50 [1]: 11 nM
- IC50 [2]: 17 nM

SMILES: COc1cc2c(Nc3ccc(Cl)c(Cl)c3C)ncnc2cc1OCC1CN(C)CCO1 (centres unmarked) [compound 57802584]
- IC50 [1, 3]: 50 nM
- IC50 ([2]; Table 3): 50 nM

SMILES: Clc1cccc(Nc2cncc(-c3cncc(NCCCn4cncn4)c3)n2)c1 [compound 5330392]
- IC50 [1]: 67 nM
- IC50 [2]: 153 nM

SMILES: COc1cc2c(Nc3ccc(F)c(Cl)c3F)ncnc2cc1OCC1CN(C)C(C)(C)CO1 (centres unmarked) [compound 57802650]
- IC50 [1]: 50 nM
- IC50 [2]: 50 nM

SMILES: COc1cc2c(Nc3ccc(Cl)cc3F)ncnc2cc1OCCCN1CCN(C)CC1 [compound 21701597]
- IC50 [1]: 20 nM
- IC50 [2]: 50 nM

SMILES: COc1cc2c(Nc3ccc(Cl)c(Cl)c3F)ncnc2cc1OCC1CN(C)CCO1 (centres unmarked) [compound 57802591]
- IC50 [1, 3]: 50 nM
- IC50 ([2]; Table 3): 50 nM

SMILES: Cn1ccc2ncnc(Oc3ccc(NC(=O)Nc4cccc(C(F)(F)F)c4)c(F)c3)c21 [compound 15949613]
- IC50 [1]: 0.033 nM
- IC50 [2]: 15 nM

SMILES: CCN(CC)[C@H]1CO[C@H]2[C@@H]1OC[C@@H]2Oc1cc2ncnc(Nc3ccc(Br)c(Cl)c3)c2cc1OC [compound 67163520]
- IC50 [1, 3]: 50 nM
- IC50 ([2]; Table 3): 50 nM

SMILES: c1cnc(NCc2ccncc2)c(-c2nnc(Nc3ccc4c(c3)OCCO4)o2)c1 [compound 44408215]
- IC50 [1]: 170 nM
- IC50 [2]: 29900 nM

SMILES: C[C@@H]1CN(C(=O)CCCC(=O)N2C[C@@H](C)c3c2cc(O)c2ccccc32)c2cc(O)c3ccccc3c21 [compound 155536201]
- IC50 [1]: 330 nM
- IC50 [2]: 540 nM

SMILES: COc1cc2c(Nc3ccc(Br)c(Cl)c3Cl)ncnc2cc1OC[C@@H]1CO[C@H]2[C@@H]1OC[C@@H]2OC [compound 66954887]
- IC50 [1, 3]: 50 nM
- IC50 ([2]; Table 3): 50 nM

SMILES: CN1CCC(Nc2ccc3c(c2)/C(=C/c2cc4c([nH]2)CCN(C(=O)N2CCOCC2)C4)C(=O)N3)CC1 [compound 71714235]
- IC50 [1, 3]: 3 nM
- IC50 ([2]; Table 3): 3 nM

SMILES: COc1cc(C2=C(c3c[nH]c4ccccc34)C(=O)NC2=O)cc(OC)c1OC [compound 11530963]
- IC50 [1]: 2.5 nM
- IC50 [2]: 5 nM

SMILES: CCN(Cc1cc(Nc2nc(C)cn3c(-c4cn[nH]c4)cnc23)sn1)C(C)(C)CO [compound 53317913]
- IC50 [1, 3]: 1 nM
- IC50 ([2]; Table 3): 1 nM

SMILES: COc1cc2c(Nc3cc(Cl)c(Cl)c(Cl)c3)ncnc2cc1OCC1CN(C)CCO1 (centres unmarked) [compound 57802593]
- IC50 [1, 3]: 50 nM
- IC50 ([2]; Table 3): 50 nM

SMILES: COc1cc2c(Nc3ccc(Br)c(C)c3)ncnc2cc1OCC1CN(C)CCO1 (centres unmarked) [compound 57802842]
- IC50 [1, 3]: 50 nM
- IC50 ([2]; Table 3): 50 nM

SMILES: COc1cc2c(Nc3ccc(Br)cc3F)ncnc2cc1OCCC1CCN(C)CC1 [compound 5329053]
- IC50 [1]: 6 nM
- IC50 [2]: 60 nM

SMILES: COc1cc2c(Nc3ccc(Cl)c(Cl)c3)ncnc2cc1OCc1csc(C2CCCCN2)n1 (centres unmarked) [compound 57802866]
- IC50 [1, 3]: 50 nM
- IC50 ([2]; Table 3): 50 nM

SMILES: COc1cc2c(Nc3cccc(Cl)c3Cl)ncnc2cc1OCC1CN(C(C)=N)CCCO1 (centres unmarked) [compound 134151034]
- IC50 [1, 3]: 50 nM
- IC50 ([2]; Table 3): 50 nM

SMILES: COCCOc1cc2ncnc(Nc3ccc(Cl)cc3F)c2cc1OC [compound 5329011]
- IC50 [1]: 7 nM
- IC50 [2]: 40 nM

SMILES: CC1(C)CC(NC(=O)c2cccc(-c3cc4nccc(Nc5cccc(O)c5)n4n3)c2)CC(C)(C)N1[O] [compound 46179972]
- IC50 [1]: 3.3 nM
- IC50 [2]: 5 nM

SMILES: COc1cc2c(Nc3ccc(Cl)cc3F)ncnc2cc1OCCCN1CCCC1 [compound 73352657]
- IC50 [1, 3]: 8 nM
- IC50 ([2]; Table 3): 8 nM

SMILES: COc1cc2c(Nc3ccc(Br)c(Cl)c3F)ncnc2cc1OC[C@@H]1CN2CCC[C@H]2C(=O)N1 [compound 57802807]
- IC50 [1]: 50 nM
- IC50 [2]: 50 nM

SMILES: COc1cc2c(Nc3ccc(Cl)c(Cl)c3)ncnc2cc1OCCC1CN(C)C(C)(C)CO1 (centres unmarked) [compound 57802889]
- IC50 [1, 3]: 50 nM
- IC50 ([2]; Table 3): 50 nM

SMILES: O=C(CCCCCCNCc1cc(Oc2ccc(NC(=O)Nc3ccc(Cl)c(C(F)(F)F)c3)cc2)ccn1)NO [compound 25072217]
- IC50 [1]: 100 nM
- IC50 [2]: 100 nM

SMILES: COCCNC(=O)c1cccc2cc(Oc3ncnc4cc(OC)c(OC)cc34)ccc12 [compound 24823252]
- IC50 [1]: 314 nM
- IC50 [2]: 385 nM

SMILES: COc1cc2c(Nc3ccc(Br)c(F)c3F)ncnc2cc1OCC1CN(C)CCO1 (centres unmarked) [compound 57802560]
- IC50 [1, 3]: 50 nM
- IC50 ([2]; Table 3): 50 nM

SMILES: COc1cc2nccc(Oc3ccc4c(C(=O)NC5CC5)cccc4c3)c2cc1C(N)=O [compound 11750694]
- IC50 [1]: 0.37 nM
- IC50 [2]: 185 nM

SMILES: COc1cc2nccc(Oc3ccc4c(C(=O)NC5CCCC5)cccc4c3)c2cc1OC [compound 24822599]
- IC50 [1]: 9 nM
- IC50 [2]: 620 nM

SMILES: COc1cc2c(Oc3ccc(NC(=O)C4(C(=O)Nc5ccc(F)cc5)CC4)cc3F)ccnc2cc1OCCCC(=O)NO [compound 71466525]
- IC50 [1]: 12 nM
- IC50 [2]: 19 nM

SMILES: COc1cc2c(Nc3cc(F)c(Br)c(F)c3)ncnc2cc1OCC1CN(C)CCO1 (centres unmarked) [compound 57802849]
- IC50 [1, 3]: 50 nM
- IC50 ([2]; Table 3): 50 nM
